One experiment addresses T1, GSPT1 protein (Homo sapiens, UniProt P15170+Q96SW2).
T1 construct: endogenous in cells; host or cells: CAL51
The experiment is described as follows: Degradation activity experiment on intracellular GSPT1 protein in CAL51 cells. Type of experiment: cell-based. The following applies: anti-GSPT1/anti-α-Tubulin antibody staining in 384-well plate; for DC50: 6 hours; for Dmax: CAL-51, 6 hours, read-out: Maximum degradation rate (%) (GSPT1 protein degradation activity). The method, then:
The medium of CAL51 (CBP60360, Kebai) was removed, and PBS was added for rinsing once, and then digested with trypsin (Trypsin-EDTA (0.25%)) for 5 minutes. After digestion, 10 mL of complete medium (DMEM containing 10% FBS[…]) was added to neutralize trypsin, and the cells were then pipetted, collected, centrifuged at 300 g for 5 min. The cell density was adjusted to 266,667 cells/mL. 30 μL of the cell suspension was added to a 384 well plate. The plate was centrifuged at 300 g for 1 min and then incubated in a cell incubator overnight.
Compounds of the present disclosure were dissolved in DMSO, with a mother liquor storage concentration of 10 mM. The gradient dilution of compound mother liquor was carried out through the dose-response program of the compound dilution and loading instrument. The total experimental volume of the dilution program was 30 μL, with the initial concentration of 100 μM for the tested compound. A4-fold dilution was performed, resulting in 10 concentration points. The positive control compound was CC-885 in Test Example 2, the negative control was DMSO, and the DMSO content of all wells was 0.3%. After the procedure, then the plate was centrifuged and incubated in a carbon dioxide incubator for 6 hours.
After 6 hours of administration, the supernatant was discarded, the cells were washed with 50 μL of cold PBS, and then the cells were fixed with 50 μL/well of 4% paraformaldehyde/universal tissue fixation solution, and incubated at room temperature for 1 hour. The paraformaldehyde was discarded and 50 μL/well PBS-0.1% Triton X-100 was added to permeate cells for 30 minutes. PBS-Triton was discarded, 50 μL/well of blocking buffer (927-70001, Li-COR) was added, and incubated at room temperature for 1 hour. The blocking buffer was removed, and 30 μL/well of rabbit anti-GSPT1 (1: 300) (HPA052488, Sigma), mouse anti-α-Tubulin (1: 2000) (T6074, Sigma) primary antibody mixed antibody was added, and incubated at 4° C. overnight. The well was washed with 50 μL/well PBST (PBS containing 0.1% Tween-20) and soaked for 10 minutes per round for 4 times. 30 μL/well of goat anti-mouse 680RD (P/N 925-68070, Li-COR) and goat anti-rabbit 800CW (P/N 925-32211, Li-COR) secondary antibody mixture (1: 5000) was added and incubated at room temperature away from light for 1-1.5 hours. The well was washed with 50 μL/well PBST and soaked for 10 min per round for 4 times. The centrifuge plate was turned upside down, covered with toilet paper, then centrifuged at 1000 rpm/min for 1 minute, and the bottom of the plate was dried. A 384-well plate was scanned with an Azure WB imaging system (Sapphire) and the data was read.
The GSPT1 protein degradation activity of the compounds of the present disclosure in CAL51 cells was measured by the above assay, and the protein degradation rate of each sample well was calculated based on the raw data.
[formula] • Sample reading: refers to the signal value of the experimental group; • DSMO reference mean reading; refers to the mean signal value of the DSMO control group. No test compound was added to the […], and other operations were consistent with those of the experimental group.
Data analysis was performed by GraphPad Prism 9. The concentration-effect curves were obtained using a nonlinear four-parameter fitting, and DC50 of compounds was calculated:
[formula] • Wherein: • X: Log of the compound concentration. • Y: degradation rate (%); • Bottom is the minimum percent degradation: • Top is the maximum percent degradation: • HillSlope is the slope coefficient of the curve.

Another experiment deals with CAL51 cells. The experiment in a line: Anti-proliferative activity experiment on CAL51 cells (CellTiter-Glo 3D). Type of experiment: cell-based. The settings on record: Homo sapiens, CAL-51, 72 h, CAL51 cell spheroid, incubated 3 days. The method, then: The medium of target cells CAL51 (CBP60360, Kebai) was removed, and PBS was added for rinsing once, and then digested with trypsin (Trypsin-EDTA (0.25%)) for 5 minutes. After digestion, 10 mL of complete medium (DMEM containing 10% FBS) was added to neutralize trypsin, and the cells were pipetted and collected, then centrifuged at 300 g for 5 min, counted. The cell density was adjusted to 40,000 cells/mL. 90 μL cell suspension was added to a 96-well low adsorption plate. 200 μL of PBS was added to the edge wells. The plate was centrifuged at 300 g for 5 minutes to form cell spheroid, which were then incubated in a cell incubator overnights. […]
The cells were removed from the incubator and returned to room temperature for […]. 50 μL of CellTiter-Glo® 3D Cell Viability Assay reagent was added, and the plate was shaked and mixed well for 10 minutes, and then the plate was read with an Envision plate reader.
The anti-proliferative activity of the compound of the present disclosure on CAL51 cells was measured by the above assay, and the cell growth inhibition rate of each sample well was calculated based on the raw data.
[formula] • Sample reading: refers to the signal value of the experimental group; • DMSO reference mean reading: refers to the mean signal value of the DMSO control group. […]
A general note: In ATP-based viability assays light output follows the ATP content of the culture.

In experiment [1] the target is T2, GST-labeled human Cereblon WT (Homo sapiens, UniProt Q96SW2).
T2 construct: purchased
The experiment in a line: Cereblon binding experiment (HTRF Human Cereblon Binding Kit). The following applies: HTRF competition with XL665-labeled lenalidomide tracer; incubated at room temperature for 3 hours; read-out: IC50 (binding ability to Cereblon). The source says: The detection kit (HTRF Human Cereblon Binding Kits) used in the experiment was a detection method for quantitative measurement of Cereblon WT ligand using HTRF® technology. The detection principle was based on HTRF technology. The specifically labeled GST antibody (Eurum Cryptate, donor) bound to the GST-labeled human Cereblon WT ligand and the XL665-labeled lenalidomide tracer (acceptor) at the same time. The donor was excited with a light source to initiate fluorescence resonance energy transfer (FRET) to the acceptor. The acceptor emitted fluorescence at a specific wavelength of 665 nm. After adding the compound, the compound competed with XL665-labeled lenalidomide to prevent FRET. The FRET signal ratio was inversely proportional to the compound concentration.
Compounds of the present disclosure were dissolved in DMSO, with a mother liquor storage concentration of 10 mM. […] The HTRF signal in each well was measured using an Envision plate reader. […]
The ratio of acceptor and donor emission signals was calculated for each well: […]
Data analysis was performed by GraphPad Prism 9. The concentration-effect curves were obtained using a nonlinear four-parameter fitting, and IC50 of compounds was calculated: […]
The binding ability of the compounds of the present disclosure to Cereblon was determined by the above assay, and the measured IC50 values were shown in Table 1.
(In general: In TR-FRET formats the signal depends on donor and acceptor labels being close together.)

T1 sequence (P15170 whole entry): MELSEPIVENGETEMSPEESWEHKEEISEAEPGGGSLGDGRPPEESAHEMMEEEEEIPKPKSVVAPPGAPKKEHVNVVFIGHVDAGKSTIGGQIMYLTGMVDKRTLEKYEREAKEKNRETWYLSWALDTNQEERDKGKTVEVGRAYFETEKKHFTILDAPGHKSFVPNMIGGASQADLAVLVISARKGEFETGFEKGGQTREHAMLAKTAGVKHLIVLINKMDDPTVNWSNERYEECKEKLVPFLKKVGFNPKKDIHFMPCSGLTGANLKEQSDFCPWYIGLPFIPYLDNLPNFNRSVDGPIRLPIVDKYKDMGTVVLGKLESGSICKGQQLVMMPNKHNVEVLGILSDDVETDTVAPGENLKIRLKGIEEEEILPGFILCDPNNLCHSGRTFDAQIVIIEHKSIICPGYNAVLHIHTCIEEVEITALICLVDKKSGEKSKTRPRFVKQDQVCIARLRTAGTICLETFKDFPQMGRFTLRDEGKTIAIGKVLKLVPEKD
T1 sequence (Q96SW2 whole entry): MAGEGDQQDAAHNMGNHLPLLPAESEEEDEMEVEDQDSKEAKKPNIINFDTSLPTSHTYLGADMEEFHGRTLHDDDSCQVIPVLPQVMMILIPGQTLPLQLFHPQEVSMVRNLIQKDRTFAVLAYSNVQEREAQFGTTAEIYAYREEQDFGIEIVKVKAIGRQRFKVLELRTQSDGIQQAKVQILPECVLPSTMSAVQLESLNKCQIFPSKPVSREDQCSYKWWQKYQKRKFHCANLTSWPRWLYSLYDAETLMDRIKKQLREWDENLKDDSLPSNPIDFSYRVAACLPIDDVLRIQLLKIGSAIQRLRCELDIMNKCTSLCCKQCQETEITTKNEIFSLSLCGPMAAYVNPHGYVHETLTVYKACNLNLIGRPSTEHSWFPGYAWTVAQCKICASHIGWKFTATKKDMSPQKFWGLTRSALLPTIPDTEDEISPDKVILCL
T1 sequence (Q16531 whole entry partner): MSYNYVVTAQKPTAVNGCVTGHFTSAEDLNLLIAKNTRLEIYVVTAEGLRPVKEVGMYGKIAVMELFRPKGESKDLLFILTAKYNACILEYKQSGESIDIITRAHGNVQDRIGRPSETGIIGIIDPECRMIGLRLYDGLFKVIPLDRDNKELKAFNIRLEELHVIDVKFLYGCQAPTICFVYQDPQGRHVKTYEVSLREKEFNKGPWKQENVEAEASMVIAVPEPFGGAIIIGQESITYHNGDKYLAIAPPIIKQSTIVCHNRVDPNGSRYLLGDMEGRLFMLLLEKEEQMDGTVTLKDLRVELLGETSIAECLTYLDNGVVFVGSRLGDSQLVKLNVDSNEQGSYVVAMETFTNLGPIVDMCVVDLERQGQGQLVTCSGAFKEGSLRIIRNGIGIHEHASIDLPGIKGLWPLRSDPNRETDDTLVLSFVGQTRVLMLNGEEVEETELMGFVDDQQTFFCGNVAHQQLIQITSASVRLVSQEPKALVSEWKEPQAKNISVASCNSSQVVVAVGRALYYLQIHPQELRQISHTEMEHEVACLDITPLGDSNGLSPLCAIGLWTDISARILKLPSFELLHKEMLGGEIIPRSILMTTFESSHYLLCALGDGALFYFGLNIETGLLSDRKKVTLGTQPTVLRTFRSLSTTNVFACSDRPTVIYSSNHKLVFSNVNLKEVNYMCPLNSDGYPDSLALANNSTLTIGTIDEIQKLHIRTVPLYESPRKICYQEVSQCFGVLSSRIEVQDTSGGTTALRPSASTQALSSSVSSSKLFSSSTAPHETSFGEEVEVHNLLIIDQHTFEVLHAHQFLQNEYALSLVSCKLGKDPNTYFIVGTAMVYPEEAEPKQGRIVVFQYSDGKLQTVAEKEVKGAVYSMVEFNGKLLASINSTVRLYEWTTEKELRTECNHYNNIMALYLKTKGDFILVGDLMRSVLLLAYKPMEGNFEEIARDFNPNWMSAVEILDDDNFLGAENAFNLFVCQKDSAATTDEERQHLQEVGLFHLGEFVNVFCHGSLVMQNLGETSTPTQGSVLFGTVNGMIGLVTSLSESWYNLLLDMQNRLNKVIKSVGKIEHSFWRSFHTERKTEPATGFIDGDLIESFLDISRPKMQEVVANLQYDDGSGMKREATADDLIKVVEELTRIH
T2 sequence (Q96SW2 whole entry): as the sequence (Q96SW2 whole entry) above

With `Cc1ccc(NC(=O)OCc2ccc3c(c2)cc2n3C(=O)N(C3CCC(=O)NC3=O)C2)cc1Cl` (centres unmarked) [Compound 3, (2-(2,6-dioxopiperidin-3-yl)-3-oxo-2,3-dihydro-1H-imidazo [1,5-a]indol-7-yl) methyl-(3-chloro-4-methylphenyl) carbamate], at GSPT1 protein, the DC50 turned out to be 25.4 nM and the Dmax was 98.3%. In addition, 39 nM corresponded to half-maximal inhibition in the experiment on CAL51 cells (IC50).

In the case of `O=C1CCC(N2Cc3cc4cc(COC(=O)Nc5cc(OC(F)(F)F)ccc5F)ccc4n3C2=O)C(=O)N1` (centres unmarked) [Compound 5, 2-(2,6-dioxopiperidin-3-yl)-3-oxo-2,3-dihydro-1H-imidazo [1,5-a] indol-7-yl) methyl (2-fluoro-5-trifluoromethoxy) phenyl) carbamate], on GSPT1 protein, half-maximal degradation (DC50) was put at 20 nM and the Dmax came out at 96.7%. On to `Cc1ccc(NC(=O)OCc2cccc3c2cc2n3C(=O)N(C3CCC(=O)NC3=O)C2)cc1Cl` (centres unmarked) [Compound 13, 2-(2,6-dioxopiperidin-3-yl)-3-oxo-2,3-dihydro-1H-imidazo [1,5-a] indol-8-yl) methyl (3-chloro-4-methylphenyl) carbamate], for which, at GSPT1 protein, the half-maximal degradation concentration (DC50) was found to be 135 nM and the Dmax came to 96.3%. For `CNCCOCCc1cc(NC(=O)OCc2ccc3c(c2)cc2n3C(=O)N(C3CCC(=O)NC3=O)C2)ccc1Cl` (centres unmarked) [Compound 9, (2-(2,6-dioxopiperidin-3-yl)-3-oxo-2,3-dihydro-1H-imidazo [1,5-a]indol-7-yl) methyl-(4-chloro-3-(2-(2-(methylamino)ethoxy)ethyl)phenyl) carbamate], in that order: 1460 nM and 69.6%. As to `CNc1ccc(NC(=O)OCc2ccc3c(c2)cc2n3C(=O)N(C3CCC(=O)NC3=O)C2)cc1Cl` (centres unmarked) [Compound 8, (2-(2,6-dioxopiperidin-3-yl)-3-oxo-2,3-dihydro-1H-imidazo [1,5-a]indol-7-yl) methyl-(3-chloro-4-(methylamino)phenyl) carbamate], at GSPT1 protein, the DC50 amounted to 13 nM and the Dmax was 94.6%. `O=C1CCC(N2Cc3cc4ccccc4n3C2=O)C(=O)N1` (centres unmarked) [Compound 1, 3-(3-oxo-1H-imidazo [1,5-a]indol-2 (3H)-yl) piperidine-2,6-dione]: in experiment [1], the half-inhibitory concentration (IC50) was in the range of 1000 to 10000 nM.

Take `O=C1CCC(N2Cc3nc4ccccc4n3C2=O)C(=O)N1` (centres unmarked) [Compound 14, 3-(1-oxo-1H-benzo [d]imidazo [1,5-a]imidazol-2 (3H)-yl) piperidine-2,6-dione]: the IC50 in experiment [1] was 1000 to 10000 nM.

`CNc1cc(C#CC(=O)NCc2ccc3c(c2)cc2n3C(=O)N(C3CCC(=O)NC3=O)C2)ccc1C` (centres unmarked) [Compound 4, N-((2-(2,6-dioxopiperidin-3-yl)-3-oxo-2,3-dihydro-1H-imidazo [1,5-a]indol-7-yl)methyl)-3-(4-methyl-3-(methylamino)phenyl) propinamide]: at GSPT1 protein, the half-maximal degradation concentration (DC50) is 144 nM and the Dmax is 85.3%. In the case of `Cc1ccc(NC(=O)NCc2ccc3c(c2)cc2n3C(=O)N(C3CCC(=O)NC3=O)C2)cc1Cl` (centres unmarked) [Compound 2, 1-(3-chloro-4-methylphenyl)-3-((2-(2,6-dioxopiperidin-3-yl)-3-oxo-2,3-dihydro-1H-imidazo [1,5-a]indol-7-yl)methyl) urea], at GSPT1 protein, the DC50 was 86.3 nM and the Dmax is 95.4%.

The term DC50 denotes the midpoint of the concentration-degradation curve. Read a low DC50 as degradation at low concentration. The IC50 is the point on the concentration scale where inhibition reaches its midpoint.

For the origin of these results see patent US20260103468A1, “FUSED RING COMPOUND, PHARMACEUTICAL COMPOSITION, AND USE THEREOF” (Hainan Simcere Zaiming Pharmaceutical Co., Ltd., priority 2022, published 2026).
